Values belong to the compound of their own block, whether it stands above or below them. The source made the active and inactive calls.
Key:
[1] = biological target: Potassium channel subfamily K member 9 (Homo sapiens, UniProt Q9NPC2); test: TASK3 (KCNK9) channel inhibitors, thallium flux, SAR follow-up, selectivity assay for TASK1 inhibitor project, cell-based, FluxOR thallium flux, concentration-response (AID 652211); format: functional;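 also: potency is for inhibitors of the channel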
[2] = biological target: Potassium channel subfamily K member 3 (Homo sapiens, UniProt O14649); test: TASK1 (KCNK3) potassium channel inhibitors, SAR follow-up, CHO cells, FluxOR thallium flux (AID 652212); format: functional
[3] = insulin promoter down-regulators in MIN6 cells, imaging, high-content screening, mouse beta cells (AID 1628); format: functional
[4] = cytotoxicity in MIN6 insulinoma cells, dose response, cytotoxicity control, cell-based, mouse insulinoma (AID 2122); format: functional;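 also: confirmatory high-throughput counterscreen run to flag cytotoxic compounds; mouse MIN-6 beta cells carrying an insulin promoter eGFP reporter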
[5] = cytotoxicity in HEK-293T cells, dose response, cytotoxicity control for TCR NF-kB inhibitor project, luminescence, T-cell screen hits (AID 489026); format: functional, cell-based;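 also: cells exposed to compound about 14 hours before the viability readout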
INS1 = test: beta cell apoptosis inhibitors, cytokine rescue, dose response, luminescence, retest (AID 449756); format: functional, cell-based; conditions: Rattus norvegicus;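 also: cell death triggered by IL-1 beta plus TNF-alpha plus IFN-gamma mixture; protective hits raise ATP signal compared with cytokine alone wells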
[6] = Shn3 3'UTR reporter inhibitors, dose response, cell-based, Clone20 osteoblasts, firefly luciferase, cherry-picked (AID 624132); format: functional;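 also: firefly luciferase luminescence from reporter carrying the Shn3 3'UTR in osteoblasts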
[7] = HepG2 cell cytotoxicity, dose response, cytotoxicity control for Shn3 inhibitor project, CellTiter-Glo, cherry-picked (AID 624134); format: functional, cell-based
[8] = control 3'UTR Renilla luciferase suppression, dose response, counter-screen for Shn3 inhibitor project, cell-based, Clone20-Shn3RL, cherry-picked (AID 624133); format: functional
[9] = biological target: COUP transcription factor 2 (Homo sapiens, UniProt P24468); test: Luminescence-based cell-based high throughput dose response assay to identify inhibitors of COUP-TFII (NR2F2).; format: functional;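 also: HEK293 cells transiently cotransfected with COUP-TFII expression vector and reporter; luciferase reporter luminescence driven by COUP-TFII from the pX2-168 reporter plasmid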
[10] = inhibitors of intracellular T. cruzi replication, confirmation, NIH3T3 host cells, beta-gal luminescence (AID 2044); format: functional, cell-based;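 also: intracellular parasites grown in NIH/3T3 mouse fibroblasts as host cells; luminescent beta-galactosidase reporter signal from transgenic T. cruzi replicating inside host cells; inhibitors lower the luminescence signal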
[11] = cytotoxicity toward NIH3T3 fibroblasts, dose response, counter-screen, cell-based, ATP luminescence, mouse fibroblasts (AID 2010); format: functional;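 also: cells exposed to compound for about 90 hours before reading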
[12] = biological target: T1, Oxysterols receptor LXR-beta (Homo sapiens, UniProt P55055); format: functional, cell-based;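 also: Cell-based luminescence dose-response assay of agonist activity at LXR, run as a confirmatory counterscreen to a daf-12 agonist screen; HEK293 cells with Gal4-LXR fusion and GAL4-driven luciferase reporter; agonist potency from rising luciferase signal of a Gal4-LXR reporter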
T1 sequence (P55055 whole entry): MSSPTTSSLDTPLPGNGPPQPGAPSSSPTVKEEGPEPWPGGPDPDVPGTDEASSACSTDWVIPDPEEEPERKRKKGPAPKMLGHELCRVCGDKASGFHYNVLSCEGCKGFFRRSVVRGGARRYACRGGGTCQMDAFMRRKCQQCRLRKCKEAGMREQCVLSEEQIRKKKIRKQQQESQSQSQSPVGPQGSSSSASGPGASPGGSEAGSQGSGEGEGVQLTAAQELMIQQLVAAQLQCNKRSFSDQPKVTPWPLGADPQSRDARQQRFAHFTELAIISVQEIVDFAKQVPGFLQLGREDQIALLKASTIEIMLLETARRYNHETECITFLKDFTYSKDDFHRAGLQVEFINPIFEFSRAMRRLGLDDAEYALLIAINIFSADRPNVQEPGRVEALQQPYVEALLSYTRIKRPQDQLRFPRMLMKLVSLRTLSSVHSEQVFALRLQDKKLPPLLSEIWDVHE

HEK293 [13] = test: NOD1 signaling inhibitors, primary screen, cell-based, luminescence, uHTS (AID 1578); format: functional; conditions: Homo sapiens
HEK293 [14] = test: cells; format: functional, cell-based; conditions: Homo sapiens
HEK293 [15] = test: cells; format: functional, cell-based; conditions: Homo sapiens; remark: listed apart in the source
[16] = biological target: Nucleotide-binding oligomerization domain-containing protein 2 (Homo sapiens, UniProt Q9HC29); test: NOD2 signaling inhibitors, cell-based, luminescence, uHTS, HEK293 (AID 1566); format: functional
HEK293 [17] = test: NOD2 signaling inhibitors in MDP-stimulated cells, cell-based, uHTS, luminescence (AID 2001); format: functional; conditions: Homo sapiens
HEK293 [18] = test: cells; format: functional, cell-based; conditions: Homo sapiens; remark: listed apart in the source
CAAX prenyl protease 2 = biological target: T2, CAAX prenyl protease 2 (Saccharomyces cerevisiae S288c, UniProt Q03530); format: biochemical
T2 sequence (Q03530 whole entry): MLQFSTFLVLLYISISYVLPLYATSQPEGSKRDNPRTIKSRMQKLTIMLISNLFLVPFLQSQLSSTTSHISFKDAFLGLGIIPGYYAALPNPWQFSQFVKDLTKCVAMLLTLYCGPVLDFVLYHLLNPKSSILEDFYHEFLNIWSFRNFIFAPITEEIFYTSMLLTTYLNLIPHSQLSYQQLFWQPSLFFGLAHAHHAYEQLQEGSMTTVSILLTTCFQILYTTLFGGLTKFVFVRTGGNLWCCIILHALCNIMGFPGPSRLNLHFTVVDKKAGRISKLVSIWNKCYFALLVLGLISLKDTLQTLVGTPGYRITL

[19] = biological target: T3, Corticotropin-releasing factor receptor 2/Corticotropin-releasing factor-binding protein (Homo sapiens, UniProt P24387+Q13324); test: activators of CRF receptor 2 with binding protein – uHTS hits, confirmation (AID 602473); format: functional; conditions: read-out: EC50_Mean
T3 sequence (Q13324 whole entry): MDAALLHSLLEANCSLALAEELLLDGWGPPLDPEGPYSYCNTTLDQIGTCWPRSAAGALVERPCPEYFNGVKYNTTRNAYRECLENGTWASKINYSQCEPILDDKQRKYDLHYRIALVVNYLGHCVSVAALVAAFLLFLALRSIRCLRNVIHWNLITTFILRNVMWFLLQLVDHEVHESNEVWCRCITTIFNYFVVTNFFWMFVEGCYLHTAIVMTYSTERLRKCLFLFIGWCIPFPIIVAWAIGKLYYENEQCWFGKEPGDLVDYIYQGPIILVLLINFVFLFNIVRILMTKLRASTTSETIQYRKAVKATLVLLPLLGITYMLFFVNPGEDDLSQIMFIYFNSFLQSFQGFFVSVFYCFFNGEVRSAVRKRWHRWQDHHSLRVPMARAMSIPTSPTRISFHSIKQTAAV
T3 sequence (P24387 whole entry): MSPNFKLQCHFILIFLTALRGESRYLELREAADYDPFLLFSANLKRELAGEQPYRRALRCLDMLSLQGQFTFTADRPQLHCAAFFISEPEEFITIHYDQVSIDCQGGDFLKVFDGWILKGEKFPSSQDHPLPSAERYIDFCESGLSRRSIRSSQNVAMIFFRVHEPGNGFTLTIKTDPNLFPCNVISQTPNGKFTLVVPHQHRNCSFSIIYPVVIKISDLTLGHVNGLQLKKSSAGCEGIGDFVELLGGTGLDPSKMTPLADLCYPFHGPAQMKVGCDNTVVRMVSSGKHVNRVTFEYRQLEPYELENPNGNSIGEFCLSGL

Protein Wnt-3a = Protein Wnt-3a (Mus musculus, UniProt P27467); test: Wnt3a-driven reporter signaling inhibition, dose response, selectivity assay for Gli-SUFU antagonist project, Wnt-LIGHT cells, luminescence (AID 651570); format: functional; conditions: read-out: IC50_Mean;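 also: Wnt-LIGHT reporter cells stimulated with conditioned medium from Wnt3a-producing cells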
[20] = reduction of endogenous Shn3 mRNA, dose response, qPCR, Clone20 cells, cherry-pick (AID 743415); format: functional, cell-based
[21] = reduction of Shn3 3'UTR firefly luciferase signal, dose response, Schnurri-3 inhibitor project, cell-based, Clone20 osteoblasts, cherry-pick, set 2 (AID 720490); format: functional;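 also: actives lower the luminescence signal as inhibitors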

Sequence of Nucleotide-binding oligomerization domain-containing protein 2 (Q9HC29 whole entry, the tested form may be a part): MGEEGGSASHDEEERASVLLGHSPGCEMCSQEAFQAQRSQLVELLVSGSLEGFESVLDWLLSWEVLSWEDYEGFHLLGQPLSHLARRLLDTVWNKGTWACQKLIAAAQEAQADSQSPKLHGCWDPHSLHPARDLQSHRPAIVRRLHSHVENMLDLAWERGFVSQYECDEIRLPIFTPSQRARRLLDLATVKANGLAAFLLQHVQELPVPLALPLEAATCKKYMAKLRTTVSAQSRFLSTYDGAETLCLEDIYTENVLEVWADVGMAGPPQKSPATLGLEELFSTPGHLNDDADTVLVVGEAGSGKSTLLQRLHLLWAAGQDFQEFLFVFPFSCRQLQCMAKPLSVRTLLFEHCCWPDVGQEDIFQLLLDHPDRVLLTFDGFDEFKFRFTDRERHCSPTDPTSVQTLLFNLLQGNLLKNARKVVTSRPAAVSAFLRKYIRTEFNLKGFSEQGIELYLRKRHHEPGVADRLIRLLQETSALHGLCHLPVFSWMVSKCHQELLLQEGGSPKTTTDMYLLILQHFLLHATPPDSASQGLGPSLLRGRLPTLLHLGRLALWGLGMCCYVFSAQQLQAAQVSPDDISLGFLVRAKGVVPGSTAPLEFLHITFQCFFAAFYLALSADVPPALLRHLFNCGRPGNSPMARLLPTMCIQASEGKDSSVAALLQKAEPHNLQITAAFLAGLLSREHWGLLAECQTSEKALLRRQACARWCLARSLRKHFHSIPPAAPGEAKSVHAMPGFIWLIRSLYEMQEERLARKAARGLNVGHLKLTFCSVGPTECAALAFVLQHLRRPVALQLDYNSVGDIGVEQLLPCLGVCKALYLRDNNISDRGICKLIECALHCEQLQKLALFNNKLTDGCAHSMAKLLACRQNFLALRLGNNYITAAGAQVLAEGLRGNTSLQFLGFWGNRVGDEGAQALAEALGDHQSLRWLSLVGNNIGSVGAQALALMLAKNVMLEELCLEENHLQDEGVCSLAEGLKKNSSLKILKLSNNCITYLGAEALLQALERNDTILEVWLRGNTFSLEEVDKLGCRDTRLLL
Sequence of Potassium channel subfamily K member 9 (Q9NPC2 whole entry): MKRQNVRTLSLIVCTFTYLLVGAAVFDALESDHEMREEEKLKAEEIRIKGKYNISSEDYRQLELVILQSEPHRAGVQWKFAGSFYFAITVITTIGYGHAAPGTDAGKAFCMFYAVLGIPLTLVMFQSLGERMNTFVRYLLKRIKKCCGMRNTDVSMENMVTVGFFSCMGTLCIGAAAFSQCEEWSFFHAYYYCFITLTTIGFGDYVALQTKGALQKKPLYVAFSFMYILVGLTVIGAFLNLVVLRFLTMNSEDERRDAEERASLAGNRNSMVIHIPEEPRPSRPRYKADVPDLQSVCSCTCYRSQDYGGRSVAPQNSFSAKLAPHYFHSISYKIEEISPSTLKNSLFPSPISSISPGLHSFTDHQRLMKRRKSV
Sequence of COUP transcription factor 2 (P24468 whole entry): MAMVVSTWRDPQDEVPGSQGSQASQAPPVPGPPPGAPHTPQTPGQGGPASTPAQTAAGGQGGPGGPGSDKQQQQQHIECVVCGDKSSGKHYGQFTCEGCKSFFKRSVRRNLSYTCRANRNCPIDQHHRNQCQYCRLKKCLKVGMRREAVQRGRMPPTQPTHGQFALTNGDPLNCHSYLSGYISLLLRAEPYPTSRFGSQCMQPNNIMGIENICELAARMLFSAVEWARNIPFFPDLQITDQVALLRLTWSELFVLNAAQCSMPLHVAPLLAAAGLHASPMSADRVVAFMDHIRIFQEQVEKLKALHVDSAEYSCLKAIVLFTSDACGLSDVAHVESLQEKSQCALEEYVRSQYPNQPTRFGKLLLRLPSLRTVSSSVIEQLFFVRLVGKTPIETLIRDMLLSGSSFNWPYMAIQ
Sequence of Potassium channel subfamily K member 3 (O14649 whole entry): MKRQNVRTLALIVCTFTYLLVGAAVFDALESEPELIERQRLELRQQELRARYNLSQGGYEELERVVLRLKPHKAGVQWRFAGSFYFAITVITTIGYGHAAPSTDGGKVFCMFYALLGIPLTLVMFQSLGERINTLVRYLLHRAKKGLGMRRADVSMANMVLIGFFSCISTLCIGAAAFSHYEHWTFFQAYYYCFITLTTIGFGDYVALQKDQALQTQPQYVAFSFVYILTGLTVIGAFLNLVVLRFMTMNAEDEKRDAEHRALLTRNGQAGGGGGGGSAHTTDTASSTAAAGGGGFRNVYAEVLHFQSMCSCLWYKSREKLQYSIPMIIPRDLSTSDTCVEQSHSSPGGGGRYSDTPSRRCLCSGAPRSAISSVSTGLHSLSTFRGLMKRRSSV
Sequence of Protein Wnt-3a (P27467 whole entry): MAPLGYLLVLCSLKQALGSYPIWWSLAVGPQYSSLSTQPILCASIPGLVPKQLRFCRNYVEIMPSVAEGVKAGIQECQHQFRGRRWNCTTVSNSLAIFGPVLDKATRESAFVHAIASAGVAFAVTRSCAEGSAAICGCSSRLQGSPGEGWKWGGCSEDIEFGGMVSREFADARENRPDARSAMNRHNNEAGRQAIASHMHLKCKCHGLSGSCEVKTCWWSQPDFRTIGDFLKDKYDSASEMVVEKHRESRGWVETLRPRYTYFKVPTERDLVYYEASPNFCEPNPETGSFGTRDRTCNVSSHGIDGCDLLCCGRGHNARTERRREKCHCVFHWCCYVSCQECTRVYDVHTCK

IC50 [1]: 0.37 µM (active) | IC50 [2]: 0.013 µM (active)
Structure (SMILES): COc1c(F)cccc1C(=O)Nc1cccc(NC(=O)c2cccc(C)c2)c1

Structure (SMILES): CCC(O)C1CCN(C(=O)c2cc(COc3ccc4ncccc4c3)on2)CC1 (centres undefined)
IC50 [3]: 0.571 µM (active) | IC50 [4]: 0.294 µM (active) | IC50 [5]: > 80 µM (inactive) | AC50 (INS1): 3.38 µM (active) | AC50 [6]: 0.505 µM (active) | AC50 [7]: 1.75 µM (active) | AC50 [8]: 10.9 µM (active) | IC50 [9]: 4.46 µM (active)

Structure (SMILES): NC(=S)N/N=C/c1ccc(-c2ccc(Cl)c(Cl)c2)o1
EC50 [10]: 0.983 µM (active) | EC50 [11]: > 60 µM (not active) | EC50 [12]: > 67.5 µM (inactive) | EC50 (cells): > 67.5 µM (inactive)

Structure (SMILES): COc1ccccc1N1CCN(c2ncc(C(=O)N3CCN(c4cccc(Cl)c4)CC3)c3ccccc23)CC1
EC50 (HEK293 [13]): 4.31 µM (active) | IC50 (HEK293 [14]): 5.68 µM (active) | IC50 (HEK293 [15]): > 20 µM (inactive) | EC50 [16]: 9.31 µM (active) | IC50 (HEK293 [17]): 4.46 µM (active) | EC50 [10]: 2.29 µM (active) | IC50 (HEK293 [18]): > 20 µM (inactive) | EC50 [11]: > 30 µM (not active) | AC50 (CAAX prenyl protease 2): 9.46 µM (active) | AC50 (INS1): 3.93 µM (active) | AC50 [6]: 0.572 µM (active) | EC50 [19]: > 53 µM (inactive) | IC50 (Protein Wnt-3a): 1.47 µM (active) | AC50 [20]: 30 µM (active) | AC50 [21]: 1.81 µM (active)
